Key:
Plasmopara viticola = experiment: Test Example G: Downy mildew on vine; details: Downy mildew on vine (Neomuscat); 250 ppm spray, 2.5 ml/pot; assessed 7 to 10 days after inoculation
Alternaia brassicicola = experiment: Test Example C: Alternaria sooty spot on cabbage; format: in vivo; details: Alternaria sooty spot on cabbage; class of control value
Text: Seeds of a test plant (cabbage variety: Shikidori) were planted and cultivated until the cotyledons extended.
<Control Value> Control value=100{1−(n/3)}

[1] = tested on: Colletotrichum orbiculare; experiment: Test Example H: Anthracnose on cucumber; details: Anthracnose on cucumber (Sagami Hanjiro); 250 ppm spray, 2.5 ml/pot; assessed 6 to 10 days after inoculation
[2] = tested on: Blumeria graminis f. sp. hordei; experiment: Test Example D: Powdery mildew on barley; details: Powdery mildew on barley; class of control value
Botrytis cinerea = experiment: Test Example B: Gray mold on tomato; details: Gray mold on tomato; class of control value
Puccinia recondita = experiment: Test Example E: Brown rust on wheat; format: in vivo; details: Brown rust on wheat; class of control value
Magnaporthe grisea = experiment: whole plant or invertebrate; format: in vivo; details: Blast on rice; class of control value
Phytophthora infestans = experiment: whole plant or invertebrate; format: in vivo; details: Late blight on tomato; class of control value

| Structure (SMILES) | Test G control value class (Plasmopara viticola) | Test C control value class (Alternaia brassicicola) | Test H control value class [1] | Test D control value class [2] | Test B control value class (Botrytis cinerea) | Test E control value class (Puccinia recondita) | Test A control value class (Magnaporthe grisea) | Test F control value class (Phytophthora infestans) |
| --- | --- | --- | --- | --- | --- | --- | --- | --- |
| CCC(=O)c1cc(Cl)c(=O)n(CC)c1-c1c(F)cc(F)cc1F [compound 49] | L (50% or less control value) | H (more than 50% control value) | H (more than 50% control value) | H (more than 50% control value) | H (more than 50% control value) | H (more than 50% control value) | H (more than 50% control value) | L (50% or less control value) |
| CCC(O)c1cc(Cl)c(=O)n(CC)c1-c1c(F)cc(OC)cc1F (centres unmarked) [compound 50] | H (more than 50% control value) | H (more than 50% control value) | H (more than 50% control value) | L (50% or less control value) | H (more than 50% control value) | H (more than 50% control value) | H (more than 50% control value) | L (50% or less control value) |
| CCC(=O)c1cc(Cl)c(=O)n(CC)c1-c1c(F)cc(OC)cc1F [compound 51] | L (50% or less control value) | H (more than 50% control value) | H (more than 50% control value) | H (more than 50% control value) | H (more than 50% control value) | H (more than 50% control value) | H (more than 50% control value) | L (50% or less control value) |
| CCn1c(-c2c(F)cc(F)cc2F)c(C(C)(O)CC)cc(Cl)c1=O (centres unmarked) [compound 52] | H (more than 50% control value) | H (more than 50% control value) | H (more than 50% control value) | H (more than 50% control value) | H (more than 50% control value) | H (more than 50% control value) | H (more than 50% control value) | L (50% or less control value) |
| CCn1c(-c2c(F)cc(F)cc2F)c(C(C)(CC)OC)cc(Cl)c1=O (centres unmarked) [compound 54] | L (50% or less control value) | H (more than 50% control value) | H (more than 50% control value) | H (more than 50% control value) | H (more than 50% control value) | H (more than 50% control value) | H (more than 50% control value) | L (50% or less control value) |
| CCn1c(-c2c(F)cc(OC)cc2F)c(C(C)(CC)OC)cc(Cl)c1=O (centres unmarked) [compound 55] | L (50% or less control value) | H (more than 50% control value) | H (more than 50% control value) | H (more than 50% control value) | H (more than 50% control value) | H (more than 50% control value) | H (more than 50% control value) | L (50% or less control value) |
| CCn1c(-c2c(F)cc(F)cc2F)c(C(C)(F)CC)cc(Cl)c1=O (centres unmarked) [compound 56] | H (more than 50% control value) | H (more than 50% control value) | H (more than 50% control value) | H (more than 50% control value) | H (more than 50% control value) | H (more than 50% control value) | H (more than 50% control value) | L (50% or less control value) |
| CCn1c(-c2c(F)cccc2F)c(COC(C)C)cc(Cl)c1=O [compound 57] | L (50% or less control value) | H (more than 50% control value) | H (more than 50% control value) | H (more than 50% control value) | H (more than 50% control value) | H (more than 50% control value) | L (50% or less control value) | L (50% or less control value) |
| CCn1c(-c2c(F)cc(F)cc2F)c(COC(C)C)cc(Cl)c1=O [compound 58] | L (50% or less control value) | H (more than 50% control value) | H (more than 50% control value) | H (more than 50% control value) | H (more than 50% control value) | H (more than 50% control value) | H (more than 50% control value) | L (50% or less control value) |
| CCn1c(-c2c(F)cc(OC)cc2F)c(C(C)(O)CC)cc(Cl)c1=O (centres unmarked) [compound 59] | H (more than 50% control value) | H (more than 50% control value) | H (more than 50% control value) | H (more than 50% control value) | H (more than 50% control value) | H (more than 50% control value) | H (more than 50% control value) | L (50% or less control value) |
| CCn1c(-c2c(F)cc(OC)cc2F)c(COC(C)C)cc(Cl)c1=O [compound 60] | H (more than 50% control value) | H (more than 50% control value) | H (more than 50% control value) | H (more than 50% control value) | H (more than 50% control value) | H (more than 50% control value) | H (more than 50% control value) | L (50% or less control value) |
| CCn1c(-c2c(F)cc(OC)cc2F)c(C(C)(F)CC)cc(Cl)c1=O (centres unmarked) [compound 61] | H (more than 50% control value) | H (more than 50% control value) | H (more than 50% control value) | H (more than 50% control value) | H (more than 50% control value) | H (more than 50% control value) | H (more than 50% control value) | L (50% or less control value) |
| CCOCc1cc(Cl)c(=O)n(CC)c1-c1c(F)cccc1F [compound 62] | H (more than 50% control value) | H (more than 50% control value) | H (more than 50% control value) | H (more than 50% control value) | H (more than 50% control value) | H (more than 50% control value) | H (more than 50% control value) | L (50% or less control value) |
| CCn1c(-c2c(F)cccc2F)c(C(OC)C(C)C)cc(Cl)c1=O (centres unmarked) [compound 63] | H (more than 50% control value) | H (more than 50% control value) | H (more than 50% control value) | H (more than 50% control value) | H (more than 50% control value) | H (more than 50% control value) | H (more than 50% control value) | L (50% or less control value) |
| CCn1c(-c2c(F)cc(F)cc2F)c(C(O)C(C)C)cc(Cl)c1=O (centres unmarked) [compound 64] | H (more than 50% control value) | H (more than 50% control value) | H (more than 50% control value) | H (more than 50% control value) | H (more than 50% control value) | H (more than 50% control value) | H (more than 50% control value) | L (50% or less control value) |
| CCn1c(-c2c(F)cc(F)cc2F)c(C(OC)C(C)C)cc(Cl)c1=O (centres unmarked) [compound 65] | L (50% or less control value) | H (more than 50% control value) | H (more than 50% control value) | H (more than 50% control value) | H (more than 50% control value) | H (more than 50% control value) | H (more than 50% control value) | L (50% or less control value) |

Source: patent publication US11147272B2, “Pyridone compounds and agricultural and horticultural fungicides comprising the same as active ingredients” (MITSUI CHEMICALS AGRO, INC., priority 2017, dated 2021)
